Test results taken from the NIST ThermoML archive (doi:10.1021/je501135p).
Numbers after ± are expanded uncertainties.

Conditions: Liquid, Ebulliometric method (Recirculating still)

SMILES: O=C1C=CCCC1 [2-cyclohexen-1-one]
- vapor or sublimation pressure (444.48 K): 99 ± 1 kPa
- vapor or sublimation pressure (444.51 K): 99 ± 1 kPa

SMILES: OC1CCCCC1 [cyclohexanol]
- vapor or sublimation pressure (433.38 K): 99 ± 3 kPa

SMILES: O=C1CCCCC1 [cyclohexanone]
- vapor or sublimation pressure (428.01 K): 99 ± 3 kPa
